IC50 data for 17 compounds are collected here from patent US20250136638A1, “9(11)-UNSATURATED NEUROACTIVE STEROIDS AND THEIR METHODS OF USE” (SAGE THERAPEUTICS, INC., priority 2018, published 2025).

The target in this assay is rat brain cortical membranes ([35S]-TBPS binding, GABA receptor complex). Briefly: Steroid inhibition of [35S]-TBPS binding. Conditions: 3 nM [35S]-TBPS, in the presence of 5 mM GABA. The method, then:
[^35S]-t-Butylbicyclophosphorothionate (TBPS) binding assays using rat brain cortical membranes in the presence of 5 mM GABA has been described (Gee et al, J. Pharmacol. Exp. Ther. 1987, 241, 346-353; Hawkinson et al, Mol. Pharmacol. 1994, 46, 977-985; Lewin, A. H et al., Mol. Pharmacol. 1989, 35, 189-194).
Briefly, cortices are rapidly removed following decapitation of carbon dioxide-anesthetized Sprague-Dawley rats (200-250 g). The cortices are homogenized in 10 volumes of ice-cold 0.32 M sucrose using a glass/teflon homogenizer and centrifuged at 1500×g for 10 min at 4° C. The resultant supernatants are centrifuged at 10,000×g for 20 min at 4° C. to obtain the P2 pellets. The P2 pellets are resuspended in 200 mM NaCl/50 mM Na—K phosphate pH 7.4 buffer and centrifuged at 10,000×g for 10 min at 4° C. This washing procedure is repeated twice and the pellets are resuspended in 10 volumes of buffer. Aliquots ([…]) of the membrane suspensions are incubated with 3 nM [^35S]-TBPS and […] aliquots of test drug dissolved in dimethyl sulfoxide (DMSO) (final 0.5%) in the presence of 5 mM GABA. The incubation is brought to a final volume of 1.0 mL with buffer. Nonspecific binding is determined in the presence of […] and ranged from 15 to 25%. Following a 90 min incubation at room temp, the assays are terminated by filtration through glass fiber filters (Schleicher and Schuell No. 32) using a cell harvester (Brandel) and rinsed three times with ice-cold buffer. Filter bound radioactivity is measured by liquid scintillation spectrometry. Non-linear curve fitting of the overall data for each drug averaged for each concentration is done using Prism (GraphPad). […] The concentration of test compound producing 50% inhibition (IC50) of specific binding and the maximal extent of inhibition (Imax) are determined for the individual experiments with the same model used for the overall data and then the means±SEM.s of the individual experiments are calculated.
Various compounds are or can be screened to determine their potential as modulators of [^35S]-TBPS binding in vitro. These assays are or can be performed in accordance with the above.
In general, IC50 refers to the midpoint of a concentration-inhibition curve. Regarding `CC(=O)[C@H]1CC[C@H]2[C@@H]3CC[C@@H]4C[C@](C)(O)CC[C@]4(C)C3=CC[C@]12C` [Example 8, 1-((3R,5R,8S,10S,13S,14S,17S)-3-hydroxy-3,10,13-trimethyl-2,3,4,5,6,7,8,10,12,13,14,15,16,17-tetradecahydro-1H-cyclopenta[a]phenanthren-17-yl)ethan-1-one], the IC50 was 0.01 to 0.1 µM.

For `Cc1nnnn1CC(=O)[C@H]1CC[C@H]2[C@@H]3CC[C@@H]4C[C@](C)(O)CC[C@]4(C)C3=CC[C@]12C` [Example 11, 1-((3R,5R,8S,10S,13S,14S,17S)-3-hydroxy-3,10,13-trimethyl-2,3,4,5,6,7,8,10,12,13,14,15,16,17-tetradecahydro-1H-cyclopenta[a]phenanthren-17-yl)-2-(5-methyl-1H-tetrazol-1-yl)ethan-1-one], the IC50 was 0.1 to 1 µM.

In the case of `C[C@@]1(O)CC[C@]2(C)C3=CC[C@]4(C)[C@@H](C(=O)Cn5nccn5)CC[C@H]4[C@@H]3CC[C@@H]2C1` [Example 13, 1-((3R,5R,8S,10S,13S,14S,17S)-3-hydroxy-3,10,13-trimethyl-2,3,4,5,6,7,8,10,12,13,14,15,16,17-tetradecahydro-1H-cyclopenta[a]phenanthren-17-yl)-2-(2H-1,2,3-triazol-2-yl)ethan-1-one], the IC50 lay in the range of 0.01 to 0.1 µM.

Regarding `C[C@@]1(O)CC[C@]2(C)C3=CC[C@]4(C)[C@@H](C(=O)Cn5ccnn5)CC[C@H]4[C@@H]3CC[C@H]2C1` [Example 6, 1-((3R,5S,8S,10S,13S,14S,17S)-3-hydroxy-3,10,13-trimethyl-2,3,4,5,6,7,8,10,12,13,14,15,16,17-tetradecahydro-1H-cyclopenta[a]phenanthren-17-yl)-2-(1H-1,2,3-triazol-1-yl)ethan-1-one], the IC50 was 0.1 to 1 µM.

For `C[C@@]1(O)CC[C@]2(C)C3=CC[C@]4(C)[C@H](C(=O)Cn5cc(C#N)cn5)CC[C@H]4[C@@H]3CC[C@H]2C1` [Example 3, 1-(2-((3R,5S,8S,10S,13S,14S,17R)-3-hydroxy-3,10,13-trimethyl-2,3,4,5,6,7,8,10,12,13,14,15,16,17-tetradecahydro-1H-cyclopenta[a]phenanthren-17-yl)-2-oxoethyl)-1H-pyrazole-4-carbonitrile], the IC50 was 1 to 10 µM.

Consider `Cc1nnn(CC(=O)[C@H]2CC[C@H]3[C@@H]4CC[C@H]5C[C@](C)(O)CC[C@]5(C)C4=CC[C@]23C)n1` [Example 4, 1-((3R,5S,8S,10S,13S,14S,17S)-3-hydroxy-3,10,13-trimethyl-2,3,4,5,6,7,8,10,12,13,14,15,16,17-tetradecahydro-1H-cyclopenta[a]phenanthren-17-yl)-2-(5-methyl-2H-tetrazol-2-yl)ethan-1-one], for which the IC50 was in the range of 0.1 to 1 µM.

As to `COC[C@@]1(O)CC[C@]2(C)C3=CC[C@]4(C)[C@@H](C(=O)Cn5cc(C#N)cn5)CC[C@H]4[C@@H]3CC[C@@H]2C1` [Example 17, 1-(2-((3R,5R,8S,10S,13S,14S,17S)-3-hydroxy-3-(methoxymethyl)-10,13-dimethyl-2,3,4,5,6,7,8,10,12,13,14,15,16,17-tetradecahydro-1H-cyclopenta[a]phenanthren-17-yl)-2-oxoethyl)-1H-pyrazole-4-carbonitrile], the IC50 was 0.01 to 0.1 µM.

`Cc1nnnn1CC(=O)[C@H]1CC[C@H]2[C@@H]3CC[C@H]4C[C@](C)(O)CC[C@]4(C)C3=CC[C@]12C` [Example 5, 1-((3R,5S,8S,10S,13S,14S,17S)-3-hydroxy-3,10,13-trimethyl-2,3,4,5,6,7,8,10,12,13,14,15,16,17-tetradecahydro-1H-cyclopenta[a]phenanthren-17-yl)-2-(5-methyl-1H-tetrazol-1-yl)ethan-1-one]: the 50% inhibitory concentration (IC50) fell in the range of 0.1 to 1 µM.

Consider `CCOC[C@@]1(O)CC[C@]2(C)C3=CC[C@]4(C)[C@@H](C(C)=O)CC[C@H]4[C@@H]3CC[C@H]2C1` [Example 14, 1-((3R,5S,8S,10S,13S,14S,17S)-3-(ethoxymethyl)-3-hydroxy-10,13-dimethyl-2,3,4,5,6,7,8,10,12,13,14,15,16,17-tetradecahydro-1H-cyclopenta[a]phenanthren-17-yl)ethan-1-one], for which the IC50 was in the range of 1 to 10 µM.

In the case of `CCOC[C@@]1(O)CC[C@]2(C)C3=CC[C@]4(C)[C@@H](C(C)=O)CC[C@H]4[C@@H]3CC[C@@H]2C1` [Example 15, 1-((3R,5R,8S,10S,13S,14S,17S)-3-(ethoxymethyl)-3-hydroxy-10,13-dimethyl-2,3,4,5,6,7,8,10,12,13,14,15,16,17-tetradecahydro-1H-cyclopenta[a]phenanthren-17-yl)ethan-1-one], the IC50 was in the range of 0.1 to 1 µM.

On to `C[C@@]1(O)CC[C@]2(C)C3=CC[C@]4(C)[C@@H](C(=O)Cn5ccnn5)CC[C@H]4[C@@H]3CC[C@@H]2C1` [Example 12, 1-((3R,5R,8S,10S,13S,14S,17S)-3-hydroxy-3,10,13-trimethyl-2,3,4,5,6,7,8,10,12,13,14,15,16,17-tetradecahydro-1H-cyclopenta[a]phenanthren-17-yl)-2-(1H-1,2,3-triazol-1-yl)ethan-1-one], for which the IC50 lay in the range of 0.1 to 1 µM.

Consider `Cc1nnn(CC(=O)[C@H]2CC[C@H]3[C@@H]4CC[C@@H]5C[C@](C)(O)CC[C@]5(C)C4=CC[C@]23C)n1` [Example 10, 1-((3R,5R,8S,10S,13S,14S,17S)-3-hydroxy-3,10,13-trimethyl-2,3,4,5,6,7,8,10,12,13,14,15,16,17-tetradecahydro-1H-cyclopenta[a]phenanthren-17-yl)-2-(5-methyl-2H-tetrazol-2-yl)ethan-1-one], for which the IC50 fell in the range of 0.01 to 0.1 µM.

As to `C[C@@]1(O)CC[C@]2(C)C3=CC[C@]4(C)[C@@H](C(=O)Cn5cc(C#N)cn5)CC[C@H]4[C@@H]3CC[C@H]2C1` [Example 2, 1-(2-((3R,5S,8S,10S,13S,14S,17S)-3-hydroxy-3,10,13-trimethyl-2,3,4,5,6,7,8,10,12,13,14,15,16,17-tetradecahydro-1H-cyclopenta[a]phenanthren-17-yl)-2-oxoethyl)-1H-pyrazole-4-carbonitrile], the IC50 was in the range of 0.01 to 0.1 µM.

Consider `COC[C@@]1(O)CC[C@]2(C)C3=CC[C@]4(C)[C@@H](C(C)=O)CC[C@H]4[C@@H]3CC[C@@H]2C1` [Example 16, 1-((3R,5R,8S,10S,13S,14S,17S)-3-hydroxy-3-(methoxymethyl)-10,13-dimethyl-2,3,4,5,6,7,8,10,12,13,14,15,16,17-tetradecahydro-1H-cyclopenta[a]phenanthren-17-yl)ethan-1-one], for which the IC50 lay in the range of 0.1 to 1 µM.

As for `C[C@@]1(O)CC[C@]2(C)C3=CC[C@]4(C)[C@@H](C(=O)Cn5cc(C#N)cn5)CC[C@H]4[C@@H]3CC[C@@H]2C1` [Example 9, 1-(2-((3R,5R,8S,10S,13S,14S,17S)-3-hydroxy-3,10,13-trimethyl-2,3,4,5,6,7,8,10,12,13,14,15,16,17-tetradecahydro-1H-cyclopenta[a]phenanthren-17-yl)-2-oxoethyl)-1H-pyrazole-4-carbonitrile], the IC50 is 0.01 to 0.1 µM.

In the case of `C[C@@]1(O)CC[C@]2(C)C3=CC[C@]4(C)[C@@H](C(=O)Cn5nccn5)CC[C@H]4[C@@H]3CC[C@H]2C1` [Example 7, 1-((3R,5S,8S,10S,13S,14S,17S)-3-hydroxy-3,10,13-trimethyl-2,3,4,5,6,7,8,10,12,13,14,15,16,17-tetradecahydro-1H-cyclopenta[a]phenanthren-17-yl)-2-(2H-1,2,3-triazol-2-yl)ethan-1-one], the IC50 was in the range of 0.1 to 1 µM.

Take `CC(=O)[C@H]1CC[C@H]2[C@@H]3CC[C@H]4C[C@](C)(O)CC[C@]4(C)C3=CC[C@]12C` [Example 1, 1-((3R,5S,8S,10S,13S,14S,17S)-3-hydroxy-3,10,13-trimethyl-2,3,4,5,6,7,8,10,12,13,14,15,16,17-tetradecahydro-1H-cyclopenta[a]phenanthren-17-yl)ethan-1-one]: the IC50 lay within 0.1 to 1 µM.
